Reference: US6319929A, “Suksdorfin analogs, compositions thereof, and methods for making and using thereof” (priority 1998, dated 2001)
Where two headings read alike, the source gives them in different places.

Columns and labels:
[1] = tested on: HIV-1 replication in H9 cells; assay: HIV-1 replication inhibition in acutely infected H9 lymphocytes (p24 antigen ELISA); format: cell-based, HIV-1 (IIIB strain); conditions: for anti-HIV activity in H9 cells (in words): acutely infected H9 cells
Summary of the method: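 H9 T cells exposed to HIV-1 IIIB (0.01-0.1 TCID50/cell) for 1 h at 37° C, washed, then grown with compound for 3-4 days at 37° C. Toxicity taken from cell counts of uninfected cultures and virus from p24 ELISA of supernatants. EC50 and IC50 were read graphically from concentration versus percent inhibition plots.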

[2] = tested on: chronically HIV-1 infected ACH-2 cells; assay: Virus expression from chronically HIV-1 infected T cell line ACH-2 (p24 antigen ELISA); format: cell-based; conditions: for effect on virus expression of PMA-stimulated ACH-2 cells (in words): with PMA; for induction of virus expression from ACH-2 cells (in words): without PMA
Protocol: (§1) Effects of suksdorfin analogs on Chronically HIV-1 infected cells. The experimental design is as follows: The phorbol ester, PMA (10^-8 M) and various concentrations of suksdorfin were either added or not added to both the chronically HIV-1 infected T cell line (ACH-2) and to the chronically HIV-1 infected monocytic cell line (U1). Cell-free supernatant was collected 72 hours post culture for p24 antigen ELISA.
Results (Table 11) from adding compound 16 to the chronically HIV-infected T cell line, ACH-2, according to methods in above examples. ACH-2 are a chronically HIV-1 infected T cell line. It was derived from A3.01 cells which is a subclone of the CEM cell line. The data below indicates the following points:
(§2) Chronically HIV-1 infected cell lines. HIV-1 chronically infected T cell line, ACH-2^12, and HIV-1 chronically infected promonocytic cell line, U1 13, were continuously maintained in RPMI 1640 with 10% fetal calf serum (FCS). For experiments, the cell lines were only used in the […] of growth. Cells (0.5×10^6 cells/well) and either various concentrations of suksdorfin or medium alone were added to 24-well plates in the presence or absence of PMA (10^-8 M). After 72 hours at 37° C. and 5% CO2, an aliquot of the cell-free supernatants were collected and analyzed for p24 antigen by ELISA (see below for details of p24 antigen ELISA).

[3] = tested on: chronically HIV-1 infected U1 cells; assay: Virus expression from chronically HIV-1 infected monocytic cell line U1 (p24 antigen ELISA); format: cell-based; conditions: for effect on virus expression of PMA-stimulated U1 cells (in words): with PMA; for induction of virus expression from U1 cells (in words): without PMA
Protocol: as §1
Compound 16 was also assayed on ACH-2 (chronically HIV-1 infected T cell line). U1 cells are also chronically HIV-1 infected cells but they are from the monocytic cell line, U937. The data presented in Table 8 indicates the following points:
as §2

Q: Which results are given for CC(=O)O[C@@H]1[C@H](OC(=O)CC(C)C)c2c(ccc3ccc(=O)oc23)OC1(C)C [Suksdorfin, suksdorfin]?
A: EC50 ([1]; Human immunodeficiency virus 1, H9, Table 17, acutely infected H9 lymphocytes, read-out: EC50): 1300 nM; EC50 ([1]; Human immunodeficiency virus 1, H9, acutely infected H9 cells, concentration which inhibits viral replication by 50%, Inactive = No suppression of HIV-1 replication in H9 cells, read-out: EC50): 1300 nM; EC50 ([1]; Human immunodeficiency virus 1, H9, earlier value, read-out: EC50 (value before increase)): 0.5 to 0.8 µg/mL; IC50 ([1]; Human immunodeficiency virus 1, Table 14, concentration which inhibits viral replication by 50%, Inactive = No suppression of HIV-1 replication in H9 cells, read-out: IC50 (μM)^b): 1.3 µM; Therapeutic Index ([1]; IC50 for cell growth inhibition divided by EC50 for HIV inhibition, H9): > 40; Therapeutic Index ([1]; Table 14): > 40.0; Therapeutic Index ([1]; Table 17, H9): > 40; anti-HIV activity in H9 cells (in words) [1]: suppressed virus replication; anti-HIV activity in H9 cells (in words) ([1]; listed as 1): potent anti-HIV-1 activity at nontoxic concentrations; P24 ([2]; ACH-2, +PMA, 0.16 μg/ml): 50,775 pg/ml; P24 ([2]; ACH-2, +PMA, 0.8 μg/ml): 55,910 pg/ml; P24 ([2]; ACH-2, +PMA, 4 μg/ml): 61,235 pg/ml; P24 ([2]; ACH-2, +PMA, 20 μg/ml): 49,914 pg/ml; P24 ([2]; ACH-2, -PMA, 0.16 μg/ml): 3,688 pg/ml; P24 ([2]; ACH-2, -PMA, 0.8 μg/ml): 3,821 pg/ml; P24 ([2]; ACH-2, -PMA, 4 μg/ml): 4,723 pg/ml; P24 ([2]; ACH-2, -PMA, 20 μg/ml): 4,541 pg/ml; effect on virus expression of PMA-stimulated ACH-2 cells (in words) [2]: no significant alteration in the level of virus expression; effect on virus expression of PMA-stimulated ACH-2 cells (in words) ([2]; listed as 1): no alteration in the level of virus expression; induction of virus expression from ACH-2 cells (in words) [2]: The answer is no; induction of virus expression from ACH-2 cells (in words) ([2]; listed as 1): no increase in the induction of virus expression; P24 ([3]; U1, +PMA, 0.16 μg/ml): 6,611 pg/ml; P24 ([3]; U1, +PMA, 0.8 μg/ml): 7,360 pg/ml; P24 ([3]; U1, +PMA, 4 μg/ml): 9,728 pg/ml; P24 ([3]; U1, +PMA, 20 μg/ml): 5,096 pg/ml; P24 ([3]; U1, -PMA, 0.16 μg/ml): 0 pg/mL; P24 ([3]; U1, -PMA, 0.8 μg/ml): 0 pg/mL; P24 ([3]; U1, -PMA, 4 μg/ml): 0 pg/mL; P24 ([3]; U1, -PMA, 20 μg/ml): 0 pg/mL; effect on virus expression of PMA-stimulated U1 cells (in words) [3]: no significant alteration in the level of virus expression; effect on virus expression of PMA-stimulated U1 cells (in words) ([3]; listed as 1): no alteration in the level of virus expression; induction of virus expression from U1 cells (in words) [3]: The answer is no; induction of virus expression from U1 cells (in words) ([3]; listed as 1): no increase in the induction of virus expression
